Read-outs that look alike come from different tables or passages of the source.
System: depressant effects of tetrabenazine (TBZ)
Experiment: tetrabenazine (TBZ) antagonism assay in mice: exploratory activity (EA) and reversal of ptosis (Pt)
Format: in vivo
Conditions: for ED50: Mus musculus, ip; for percent inhibition at a certain dose, EA (exploratory activity): TBZ 32 mg/kg i.p.
Procedure: The utility of the novel compounds of this patent is based on a standard test for antidepressant agents involving antagonism of the depressant effects of tetrabenazine (TBZ). This is the "classical" tetrabenazine antagonism assay described in U.S. Pat. No. 3,787,577. In this test, mice are injected with a test compound 30 minutes prior to the injection of 32 mg/kg i.p. of TBZ, a drug which decreases normal exploratory activity and induces ptosis. After 30 minutes, the mice are tested for two parameters: the presence of normal exploratory activity (EA) and reversal of ptosis (Pt). A control group of mice is given only 32 mg/kg i.p. of TBZ. The biological activity of the novel compounds of this invention may be understood by some representative, nonlimiting examples, presented in Tables I and II.
Tables I lists the compounds tested by a compound number, structural formula, HX or acid addition salt form in which the compound was tested, test data, and internal code number (McN No.). Table II names the various Table I compounds.
*ED50 given in mg/kg for each parameter (except for percent
inhibition at a certain dose in mg/kg, given for four examples: XLIV, XLV

[1] = mice, i.p., compound 30 minutes prior to 32 mg/kg i.p. TBZ, normal exploratory activity, read-out: TBZ ED50, EA (exploratory activity)
[2] = mice, i.p., compound 30 minutes prior to 32 mg/kg i.p. TBZ, reversal of ptosis, read-out: TBZ ED50, Pt (reversal of ptosis)
[3] = read-out: TBZ ED50, EA (exploratory activity)
[4] = read-out: TBZ ED50, Pt (reversal of ptosis)
[5] = mice, i.p., compound 30 minutes prior to 32 mg/kg i.p. TBZ, normal exploratory activity
[6] = mice, i.p., compound 30 minutes prior to 32 mg/kg i.p. TBZ, reversal of ptosis

COc1cccc([C@@H]2CN3CCC[C@@H]3c3ccccc32)c1 (relative stereo) [Compound XL, 1,2,3,5,6,10bβ-Hexahydro-6α-(3-methoxyphenyl)pyrrolo[2,1-a]isoquinoline]
ED50 [1]: ~0.17 mg/kg
ED50 [2]: ~0.07 mg/kg

Oc1cccc([C@@H]2CN3CCC[C@@H]3c3ccccc32)c1 (relative stereo) [Compound XLI, 3-(1,2,3,5,6,10bβ-Hexahydropyrrolo[2,1-a]isoquinolin-6α-yl)phenol]
ED50 [1]: > 10 mg/kg
ED50 [2]: 0.11 mg/kg

Clc1ccc([C@@H]2CN3CCC[C@H]3c3cc(Cl)ccc32)cc1 (relative stereo) [Compound XLII, [6α,10bα]-9-Chloro-6-(4-chlorophenyl)-1,2,3,5,6,10b-hexahydropyrrolo[2,1-a]isoquinoline]
ED50 [1]: 100 mg/kg
ED50 [2]: 37 mg/kg

C[C@]12CCCN1C[C@@H](c1ccccc1)c1ccccc12 (relative stereo) [IVb, [6α,10bβ]-1,2,3,5,6,10b-Hexahydro-10b-methyl-6-phenylpyrrolo[2,1-a]isoquinoline]
ED50 [1]: 9.2 mg/kg
ED50 [2]: 3.8 mg/kg

C[C@]12CCCN1C[C@@H](c1ccc(F)cc1)c1ccc(F)cc12 (relative stereo) [L, 9-Fluoro-6α-(4-fluorophenyl)-1,2,3,5,6,10b-hexahydro-10bβ-methylpyrrolo[2,1-a]isoquinoline]
ED50 [1]: 6.1 mg/kg
ED50 [2]: 5.6 mg/kg

Clc1ccccc1[C@@H]1CN2CCC[C@@H]2c2ccccc21 (relative stereo) [LI, [6α,10bβ]-6-(2-chlorophenyl)-1,2,3,5,6,10b-hexahydropyrrolo[2,1-a]isoquinoline]
ED50 [2]: 0.2 mg/kg
percent inhibition at a certain dose, EA (exploratory activity) (mice, i.p., @ 60 mg/kg): 37%

c1ccc([C@H]2Cc3ccccc3[C@@H]3CCCN23)cc1 (relative stereo) [LII, 1,2,3,5,6,10bα-Hexahydro-5α-phenylpyrrolo[2,1-a]isoquinoline]
ED50 [3]: ~30 mg/kg
ED50 [4]: 32 mg/kg

Oc1cccc([C@@H]2CN3CCC[C@H]3c3ccccc32)c1 (relative stereo) [XLIV, 3-(1,2,3,5,6,10bα-Hexahydropyrrolo[2,1-a]isoquinolin-6α-yl)phenol]
ED50 [2]: 3.1 mg/kg
percent inhibition at a certain dose, EA (exploratory activity) (mice, i.p., @ 30 mg/kg): 37%

FC(F)(F)c1cccc([C@@H]2CN3CCC[C@@H]3c3ccccc32)c1 (relative stereo) [XLIX, 1,2,3,5,6,10bβ-Hexahydro-6α-[(3-trifluoromethyl)phenyl]-pyrrolo[2,1-a]isoquinoline]
ED50 [1]: 1.2 mg/kg
ED50 [2]: 0.43 mg/kg

COc1ccc([C@@H]2CN3CCC[C@@H]3c3ccccc32)cc1OC (relative stereo) [XLV, 1,2,3,5,6,10bβ-Hexahydro-6α-(3,4-dimethoxyphenyl)pyrrolo[2,1-a]isoquinoline]
ED50 [2]: 0.14 mg/kg
percent inhibition at a certain dose, EA (exploratory activity) (mice, i.p., @ 30 mg/kg): 33%

C[C@@]1(c2ccccc2)CN2CCC[C@H]2c2ccccc21 (relative stereo) [XLVI, 1,2,3,5,6,10bα-Hexahydro-6-methyl-6α-phenylpyrrolo[2,1-a]isoquinoline]
ED50 [1]: 22.5 mg/kg
ED50 [2]: 16 mg/kg

COc1cccc2c1[C@H](c1ccccc1)CN1CCC[C@H]21 (relative stereo) [XLVII, 1,2,3,5,6,10bβ-Hexahydro-7-methoxy-6α-phenylpyrrolo[2,1-a]isoquinoline]
ED50 [3]: 2.8 mg/kg
ED50 [4]: ~6.5 mg/kg

Nc1ccc([C@@H]2CN3CCC[C@H]3c3ccccc32)cc1 (relative stereo) [XLVIII, 4-(1,2,3,5,6,10bα-Hexahydropyrrolo[2,1-a]isoquinoline-6α-yl)benzenamine]
ED50 [1]: 1.4 mg/kg
ED50 [2]: 0.41 mg/kg

Clc1ccc([C@@H]2CN3CCC[C@H]3c3ccccc32)cc1Cl (relative stereo) [XXIV, 6α-(3,4-Dichlorophenyl)-1,2,3,5,6,10bα-hexahydropyrrolo[2,1-a]isoquinoline]
ED50 [3]: ~40 mg/kg
ED50 [4]: 8 mg/kg

Clc1ccc([C@@H]2CN3CCC[C@@H]3c3ccccc32)cc1 (relative stereo) [XXIX, [6α,10bβ]-6-(4-Chlorophenyl)-1,2,3,5,6,10b-hexahydropyrrolo[2,1-a]isoquinoline]
ED50 [3]: 0.27 mg/kg
ED50 [4]: 0.13 mg/kg

C[C@@]1(c2ccccc2)CN2CCC[C@@H]2c2ccccc21 (relative stereo) [XXV, 1,2,3,5,6,10bβ-Hexahydro-6-methyl-6α-phenylpyrrolo[2,1-a]isoquinoline]
ED50 [1]: 27 mg/kg
ED50 [2]: 0.7 mg/kg

Oc1cc2c(cc1O)[C@H]1CCCN1C[C@H]2c1ccccc1 (relative stereo) [XXVI, [6α,10bβ]-1,2,3,5,6,10b-Hexahydro-8,9-dihydroxy-6-phenylpyrrolo[2,1-a]isoquinoline]
ED50 [1]: 0.87 mg/kg
ED50 [2]: 0.33 mg/kg

COc1cc2c(cc1OC)[C@H]1CCCN1C[C@H]2c1ccccc1 (relative stereo) [XXVII, [6α,10bβ]-1,2,3,5,6,10b-Hexahydro-8,9-dimethoxy-6-phenylpyrrolo[2,1-a]isoquinoline]
ED50 [1]: 17 mg/kg
ED50 [2]: 7.2 mg/kg

c1ccc2c(c1)[C@H](C1CCCCC1)CN1CCC[C@H]21 (relative stereo) [XXVIII, [6α,10β]-6-Cyclohexyl-1,2,3,5,6,10b-hexahydropyrrolo[2,1-a]isoquinoline]
ED50 [1]: 6.4 mg/kg
ED50 [2]: 1.9 mg/kg

Clc1ccc([C@@H]2CN3CCC[C@H]3c3ccccc32)cc1 (relative stereo) [XXX, 6α-(4-Chlorophenyl)-1,2,3,5,6,10bα-hexahydropyrrolo[2,1-a]isoquinoline]
ED50 [3]: 8.1 mg/kg
ED50 [4]: 5.4 mg/kg

COc1ccc([C@@H]2CN3CCC[C@H]3c3ccccc32)cc1 (relative stereo) [XXXI, 1,2,3,5,6,10bα-Hexahydro-6α-(4-methoxyphenyl)pyrrolo[2,1-a]isoquinoline]
ED50 [1]: ~60 mg/kg
ED50 [2]: 3 mg/kg

Clc1ccc([C@@H]2CN3CCC[C@@H]3c3cc(Cl)ccc32)cc1 (relative stereo) [XXXII, [6α,10bβ]-9-Chloro-6-(4-chlorophenyl)-1,2,3,5,6,10b-hexahydropyrrolo[2,1-a]isoquinoline]
ED50 [1]: 37 mg/kg
ED50 [2]: 4 mg/kg

COc1ccc([C@@H]2CN3CCC[C@@H]3c3ccccc32)cc1 (relative stereo) [XXXIII, 1,2,3,5,6,10bβ-Hexahydro-6α-(4-methoxyphenyl)pyrrolo[2,1-a]isoquinoline]
ED50 [1]: 7 mg/kg
ED50 [2]: 0.19 mg/kg

COc1ccc2c(c1)[C@@H]1CCCN1C[C@H]2c1ccccc1 (relative stereo) [XXXIX, 1,2,3,5,6,10bα-Hexahydro-9-methoxy-6α-phenylpyrrolo[2,1-a]isoquionline]
ED50 [1]: ~40 mg/kg
ED50 [2]: 8 mg/kg

Oc1ccc([C@@H]2CN3CCC[C@@H]3c3ccccc32)cc1O (relative stereo) [XXXV, 4-(1,2,3,5,6,10bβ-Hexahydropyrrolo[2,1-a]isoguinolin-6α-yl)benzene-1,2-diol]
ED50 [1]: 1.4 mg/kg
ED50 [2]: 0.13 mg/kg

Oc1ccc([C@@H]2CN3CCC[C@H]3c3ccccc32)cc1O (relative stereo) [XXXVII, 4-(1,2,3,5,6,10bα-Hexahydropyrrolo[2,1-a]isoquinolin-6a-yl)-1,2-benzenediol]
ED50 [1]: 30 mg/kg
ED50 [2]: 1.8 mg/kg

O=[N+]([O-])c1ccc([C@@H]2CN3CCC[C@@H]3c3ccccc32)cc1 (relative stereo) [XXXVIII, 1,2,3,5,6,10bβ-hexahydro-6α-(4-nitrophenyl)-pyrrolo[2,1-a]isoquinoline]
ED50 [1]: 0.51 mg/kg
ED50 [2]: 0.15 mg/kg

c1ccc([C@@H]2CN3CCC[C@@H]3c3ccccc32)cc1 (relative stereo) [Xb, [6α,10bβ]-1,2,3,5,6,10b-Hexahydro-6-phenyl-pyrrolo[2,1-a]isoquinoline]
ED50 [1]: 0.34 mg/kg
ED50 [2]: 0.07 mg/kg

OC1(c2ccccc2)CN2CCCC2c2ccccc21 (single isomer, unassigned) [XLIII, 1,2,3,5,6,10b-Hexahydro-6-phenylpyrrolo[2,1-a]isoquinolin-6-ol]
TBZ ED50, EA (exploratory activity) [5]: 33 mg/kg
TBZ ED50, Pt (reversal of ptosis) [6]: 5.0 mg/kg

OC1(c2ccccc2)CN2CCCC2c2ccccc21 (single isomer, unassigned) [XXXIV, 1,2,3,5,6,10b-Hexahydro-6-phenylpyrrolo[2,1-a]isoquinolin-6-ol]
TBZ ED50, EA (exploratory activity) [5]: 8.4 mg/kg
TBZ ED50, Pt (reversal of ptosis) [6]: 1.6 mg/kg

FC1(c2ccccc2)CN2CCCC2c2ccccc21 (stereo not drawn) [LIII, 6α-Fluoro-1,2,3,5,6,10bα-hexahydro-6-phenylpyrrolo[2,1-a]isoquinoline]
ED50 [4]: 1.2 mg/kg
percent inhibition at a certain dose, EA (exploratory activity) (mice, i.p., @ 40 mg/kg): 60%

Oc1ccc(C2CN3CCCC3c3ccccc32)cc1 (stereo not drawn) [XXXVI, 4-(1,2,3,5,6,10bα-Hexahydropyrrolo[2,1-a]isoquinolin-6α-yl)phenol]
TBZ ED50, EA (exploratory activity) [5]: ca. 14 mg/kg
TBZ ED50, Pt (reversal of ptosis) [6]: 10 mg/kg
